Measurements from patent publication US20200345689A1, “METHODS AND CO[…] RRx-001 FOR RADIOPROTECTION” (EpicentRx, Inc., priority 2018, published 2020).

Columns and labels:
CD2F1 male mice = test: Complete blood count with differential and reticulocytes after sublethal TBI or sham irradiation; format: in vivo
Procedure: To determine the pathophysiological effects of RRx-001 on hematopoietic protection in mice, CD2F1 male mice were treated with 10 mg/kg RRx-001 or the vehicle control 24 hours prior to a sublethal dose of TBI (7 Gy at 0.6 Gy/min using High-level Cobalt-60) or sham irradiation (day 0) according to the table below.
CD2F1 male mice (n=3/group) were divided into 4 experimental groups: 1) irradiation+vehicle, 2) irradiation+RRx-001, 3) sham-irradiation+vehicle and 4) sham-irradiation+RRx-001. Either 10 mg/kg RRx-001 or the vehicle control were IP injected 24 hours prior to either irradiation or sham-irradiation (day 0). On days 2, 7, 14, 21, and 28 post-irradiation (day 0) mice were humanely euthanized. Blood, bone marrow, and sternebrae were then collected. This experiment was performed in duplicate for a total of n=6 mice/group/time point.
Post-irradiation whole blood was obtained by terminal cardiocentesis. Blood samples were immediately transferred into EDTA tubes (Sarstedt Inc., Newton, N.C.) and gently rotated until the time of analysis. The tubes were analyzed for a complete blood count with differential and reticulocytes using the ADVIA 2120 (Siemens Medical Solutions Diagnostics, Dublin, Ireland), and Microsoft software version 5.9 (Microsoft Corp., Redmond, Wash.) to generate the data.
Blood parameters were compared between treatment groups using an analysis of variance (ANOVA). The Wilcoxon test was also used for sensitivity and to potentially address data departures from normality. A longitudinal mixed model repeated measures was also implemented to provide a more complete data analysis of the sham-irradiated treatment groups' difference in overall time profile mean based on the blood parameters. Bone marrow data (megakaryocytes and grade) statistical analysis was carried out using a parametric test consisting of a general linear model analysis of variance (ANOVA with factors consisting of treatment group and pathologist) and the Kruskal-Wallis nonparametric test. The statistical data analysis was carried out using R software (Version 3.4.3, 2016) and the graphs made using GraphPad Prism version 7.03 (GraphPad Software, La Jolla, Calif.).

HO-1 [1] = test: Western blot of HO-1 in U937 monocytes and macrophages; format: cell-based, human; details: 3 mM RRx-001 for 16 hours
Procedure: (§1) Expression of ARE proteins was assayed in hMSC, macrophages, and monocytes following in vitro irradiation of the cells, which were pretreated with RRx-001 or vehicle. Protein expression was assayed by Western blotting and protein quantification.
(§2) hMSC were treated for 16 hours with […] RRx-001 or the vehicle control (0.05% DMSO), irradiated at 10 Gy or sham-irradiated and the protein collected 8 or 24 hours post-sham or irradiation. Human monocytic leukemic THP-1 and U937 cells were differentiated into macrophages with 50 nM Phorbol 12-myristate 13-acetate (PMA) for 24 hours before treatment. Differentiated and non-differentiated cells were treated with […] RRx-001 or 0.05% DMSO (vehicle control) for 16 hours prior to radiation. The cells were irradiated at 5 Gy or sham-irradiated and collected 4-8 hours later for both analysis. For each experiment, duplicates of each sample were run.

[2] = system: human monocytic leukemic THP-1 cells; test: Cytokine array of irradiated THP-1 monocytes and macrophages; format: cell-based
Procedure: A cytokine array was employed to examine cytokine expression following in vitro irradiation of human monocytic leukemic THP-1 cells. THP-1 cells were differentiated into macrophages with 50 nM Phorbol 12-myristate 13-acetate (PMA) for 24 hours before treatment. Differentiated and non-differentiated cells were treated with […] RRx-001 or 0.05% DMSO (vehicle control) for 16 hours prior to radiation. The cells were irradiated at 5 Gy or sham-irradiated and collected 4-8 hours later for both analysis. For the cytokine analysis, cell media was collected and blotted onto Proteome Profiler Human Cytokine Arrays (R&D Systems, Inc.) according to the manufacturer's protocol.

[3] = system: male Syrian Golden Hamsters; test: Oral mucositis induced by acute radiation in hamsters; format: in vivo
Procedure: In this example, the ability of RRx-001 to treat oral mucositis induced by acute radiation was assess in hamsters.
Fifty-six (56) male Syrian Golden Hamsters were used in the study. Mucositis was induced by administering an acute radiation dose of 40 Gy directed to the left buccal cheek pouch on Day 0 at a rate of 2-2.5 Gy/min. Mucositis was evaluated clinically starting on Day 6 and continuing on alternate days until Day 28. Hamsters reaching a mucositis severity score of 4 or higher received buprenorphine (0.5 mg/kg) SC twice a day for 48 hours or until score dropped below 4.
Dosing was scheduled as follows: for animals in Groups 1-4, animals were dosed with RRx-001 (1, 3, or 10 mg/kg) or vehicle (1:2 DMA:PEG400 vol:vol ratio) once a day (QD) on Days −4, −1, 1, 4, 7, 11, 14, 18, 21, and 25 via intraperitoneal (IP) administration; animals in Groups 5-7 were dosed QD with RRx-001 (1, 3, or 10 mg/kg) on Days −4, −1, 1, 8, 15, and 22.
The significance of differences observed between the control and treatment group was evaluated by comparing the days with mucositis scores≥3 and <3 between groups using chi-square analysis. […] The percentage of animal days with a score of ≥3 in the Vehicle Group was 57.29%. […] There were numerous days where animals dosed with RRx-001 had percent ulceration days that were lower (which can be interpreted as ameliorative of disease severity) in comparison to vehicle-dosed animals.
An analysis of the severity of mucositis was performed using the Mann-Whitney rank sum analysis to compare the visual mucositis scores for the treatment group to the Vehicle control group on each day of evaluation. In this analysis, 2 days of significant reduction in the mucositis score are generally required before it is regarded as meaningful.

HO-1 [4] = test: Western blot of HO-1 in THP-1 monocytes and macrophages; format: cell-based, human; details: THP-1 macrophages, 3 mM RRx-001 for 16 hours
Procedure: as §1, §2

[5] = 7 Gy TBI, decrease below sham controls on days 7 and 14
[6] = days 2 and 21 post-irradiation (7 Gy TBI)

SMILES: O=C(CBr)N1CC([N+](=O)[O-])([N+](=O)[O-])C1 [RRx-001, 2-bromo-1-(3,3-dinitroazetidin-1-yl)ethan-1-one]
- % HCT compared to the irradiated control (CD2F1 male mice; 7 Gy TBI, day 14): significantly increased levels
- ALC counts compared to the controls (CD2F1 male mice; 7 Gy TBI, day 14): significantly increased
- WBC counts compared to the controls (CD2F1 male mice; 7 Gy TBI, day 14): significantly increased
- % RETIC compared to control mice (CD2F1 male mice; 7 Gy TBI, day 14, returned to baseline levels): significantly increased
- % RETIC compared to the vehicle controls (CD2F1 male mice; 7 Gy TBI, day 28): significantly increased
- ANC compared to the control (CD2F1 male mice; 7 Gy TBI, days 7 and 14): significantly increased
- PLT compared to the control (CD2F1 male mice; 7 Gy TBI, days 7 and 14): significantly increased
- hemoglobin, irradiated RRx-001 vs irradiated vehicle (CD2F1 male mice; [5]): not significantly different
- red blood cells, irradiated RRx-001 vs irradiated vehicle (CD2F1 male mice; [5]): not significantly different
- absolute lymphocyte count (ALC) vs vehicle control (CD2F1 male mice; [6]): No significant difference
- absolute neutrophil count (ANC) vs vehicle control (CD2F1 male mice; [6]): No significant difference
- percent hematocrit (% HCT) vs vehicle control (CD2F1 male mice; [6]): No significant difference
- percent reticulocytes (% RETIC) vs vehicle control (CD2F1 male mice; [6]): No significant difference
- platelets (PLT) vs vehicle control (CD2F1 male mice; [6]): No significant difference
- white blood cells (WBC) vs vehicle control (CD2F1 male mice; [6]): No significant difference
- platelets, overall mean over time (standard error) (CD2F1 male mice; sham-irradiated, 10 mg/kg IP, longitudinal mixed model repeated measures): 1067.73 (32.26)
- difference in the overall mean of platelets over time vs vehicle (CD2F1 male mice; sham-irradiated, least-square means, p=0.01): statistically significant difference in the least-square means in favor of RRx-001-treatment
- HO-1 production (HO-1 [1]; U937 macrophages, sham and irradiated groups): increased HO-1 production
- HO-1 expression (HO-1 [1]; U937 monocyte fraction): significant increase in HO-1
- cytokine expression (cytokine array) ([2]; THP-1 macrophage fraction, 3 mM RRx-001 for 16 hours, sham and 5 Gy irradiated): reduction in cytokines involved in inflammation
- CCL5/RANTES expression (cytokine array) ([2]; THP-1 monocytes, 3 mM RRx-001 for 16 hours): induction
- pro-inflammatory chemokine IL-8 ([2]; macrophages): reduction
- percent ulceration (mucositis score ≥3) ([3]; 10 mg/kg, Groups 2 and 5, only dosed on Days −4, −1, and 1): best response in decreasing percent ulceration
- percent days of ulceration, twice weekly dosing vs dosing one time per week ([3]; 3 and 1 mg/kg concentrations (Groups 4 vs. Group 7)): more beneficial effects on percent days of ulceration
- mean daily mucositis scores ([3]; Group 2: 10 mg/kg IP, dosing terminated after Day 1, 40 Gy to left buccal cheek pouch): modest but significant enhancement of disease healing
- percentage of days with a mucositis score of ≥3 in comparison to the Vehicle Group ([3]; Group 2: 10 mg/kg on Days −4, −1, 1, chi-square, p<0.01): statistically lower
- mean daily mucositis scores ([3]; all other treatment groups (Groups 3-7: 1, 3 or 10 mg/kg IP)): tracked fairly close to each other, and with Vehicle dosed controls
- mucositis scores compared to the Vehicle control group ([3]; animals dosed with 1 mg/kg): multiple days of significant improvement
- mucositis scores compared to the Vehicle control group ([3]; animals dosed with 10 mg/kg): multiple days of significant improvement
- HO-1 expression (HO-1 [4]): no significant increase in HO-1
